Columns and labels:
[1] = tested on: H460 cells; assay: intracellular ATP measurement; format: cell-based, human
Description: H460 cells were exposed to the indicated concentrations of MPN-2 and ATP production was examined. Cells were lysed and intracellular ATP determined as described previously. For example, cells were washed (while still adherent) with cold PBS 1×, lysed with Passive Lysis Buffer (1×; Molecular Probes, Invitrogen) added directly to the plates, and immediately harvested by scraping. The lysates were flash frozen (to −80° C.) and thawed (to 37° C.) once to accomplish complete lysis and then centrifuged (at 4° C.) for 30 seconds to clear the lysates. Intracellular ATP levels were determined using a bioluminescence assay (Molecular Probes), utilizing recombinant firefly luciferase and its substrate, D-luciferin. The luminescence was read in a TD-20/20 luminometer (Turner Designs) at 560 nm. The ATP values were calculated using an ATP standard curve. The protein concentrations of the lysates were estimated using the BCA assay (Pierce Biotechnology) and ATP was expressed as pmol/μg protein. All data are expressed as the mean±SD of three experiments. Statistical significance was assessed by the two-sample t test (independent variable).

[2] = tested on: H460 cells; assay: glycolysis assay (3H2O from 5-[3H]glucose); format: cell-based, human
Description: H460 cells were exposed to the indicated concentrations of MPN-2 and glycolysis production was examined. Cells growing in 6-well plates were incubated in 500 μl of complete medium containing 1 μCi of 5-[^3H]glucose per well for 60 min in 5% CO2 at 37° C. Media was collected, ^3H2O formed via glycolysis from the 5-[^3H]glucose measured and counts normalized as previously described. For example, the medium was then collected and centrifuged to pellet any suspended cells. To separate the ^3H2O formed via glycolysis from the 5-[^3H]glucose added to the medium, an evaporation technique in a sealed system was utilized. Briefly, 150 μl aliquots of medium were added to open tubes that were placed upright inside scintillation vials containing 1 ml of H2O. The scintillation vials were sealed, and the ^3H2O produced by glycolysis through enolase and released to the medium was allowed to equilibrate with the H2O in the outer vial for 48 h at 37° C. The amounts of ^3H2O that had diffused into the surrounding H2O was measured on a Tri-Carb 2910 liquid scintillation analyzer (Perkin Elmer) and compared with ^3H2O and 5-[^3H]glucose standards. Protein concentration was determined using the BCA assay and counts were normalized to protein concentration. All data are expressed as the mean±SD of three experiments. Statistical significance was assessed by the two-sample t test (independent variable).
Method: To examine glycolysis, H460 cells growing in 6-well plates were incubated in 500 μl of complete medium containing 1 μCi of 5-[^3H] glucose per well for 60 min in 5% CO2 at 37° C. The medium was then collected and centrifuged to pellet any suspended cells. To separate the ^3H2O formed via glycolysis from the 5-[^3H]glucose added to the medium, an evaporation technique in a sealed system was utilized. Briefly, 150 μl aliquots of medium were added to open tubes that were placed upright inside scintillation vials containing 1 ml of H2O. The scintillation vials were sealed, and the ^3H2O produced by glycolysis through enolase and released to the medium was allowed to equilibrate with the H2O in the outer vial for 48 h at 37° C. The amounts of ^3H2O that had diffused into the surrounding H2O was measured on a Tri-Carb 2910 liquid scintillation analyzer (Perkin Elmer) and compared with ^3H2O and 5-[^3H]glucose standards. Protein concentration was determined using the BCA assay and counts were normalized to protein concentration (previously described in CHESNEY et al. Oncotarget. 2014; 5(16):6670-6686.)

[3] = tested on: Lewis lung carcinoma (LLC) tumors; assay: Lewis lung carcinoma tumor growth in syngeneic mice; format: in vivo, C57BL/6 mice
Description: For xenograft studies, exponentially growing LLC or H460 cells were detached, washed and resuspended in PBS. Female C57BL/6 mice (Jackson Labs) were injected with LLC cells (n=10/group, s.c., 1×10^6 cells) and female BALB/c athymic mice (Jackson Labs) with H460 cells (n=10/group, s.c, 5×10^6 cells). Tumor masses were determined in a blinded fashion with Vernier calipers using the formula: mass (mg)=(width, mm)^2×(length, mm)/2 as previously described. When tumor masses were 150-200 mg, mice were randomized to daily intraperitoneal DMSO or 5MPN at the indicated dose in 50 μL DMSO. Tumor measurements and body weights were followed daily. All data are expressed as the mean±SD of two experiments. Statistical significance was assessed by the two-sample t test (independent variable).
Method: C57BL/6 mice (Charles River) were implanted with 1×10^6 Lewis lung carcinoma cells subcutaneously and, after tumors developed, were followed by caliper measurements daily to quantify tumor mass using the formula: tumor mass=(length×width^2)/2. When tumors were ˜150-200 mg, mice were randomized to daily oral DMSO±Formula (VIII) (n=10/group) at 40 mg/kg in 50 μL DMSO and tumor growth followed×9 days. (* signifies statistical significance)

[4] = tested on: H460 cells; assay: F2,6BP measurement in cells (coupled enzyme reaction); format: cell-based, human
Description: Cells or tissues were prepared as previously described and F2,6BP content measured using a coupled enzyme reaction following a modification of the method of Van Schaftingen et al (VAN SCHAFTINGEN E et al. “A kinetic study of pyrophosphate:fructose-6-phosphate phosphotransferase from potato tubers. Application to a microassay of fructose 2,6-bisphosphate” Eur J Biochem (1982) Vol. 129, No. 1, pp. 191-195) and normalized to total cellular protein measured by the bicinchoninic acid assay (BCA, Thermo Scientific). For example, H460 cells were exposed to the indicated concentrations of MPN-2. In order to measure F2,6BP, cells were harvested, washed with PBS, lysed in NaOH/Tris acetate by heating at 80° C. and lysates neutralized to pH 7.2. F2,6BP content was measured using a coupled enzyme reaction following a modified method of Van Schaftingen et al (VAN SCHAFTINGEN E et al. “A kinetic study of pyrophosphate:fructose-6-phosphate phosphotransferase from potato tubers. Application to a microassay of fructose 2,6-bisphosphate” Eur J Biochem (1982) Vol. 129, No. 1, pp. 191-195). The F2,6BP concentration was normalized to total cellular protein measured by the bicinchoninic acid assay (BCA, Thermo Scientific). All data are expressed as the mean±SD of three experiments. Statistical significance was assessed by the two-sample t test (independent variable).
Method: In order to measure F26BP, H460 cells were exposed to increasing concentrations of the agents and were harvested, washed with PBS, lysed in NaOH/Tris acetate by heating at 80° C. and lysates neutralized to pH 7.2. F26BP content was measured using a coupled enzyme reaction following a modified method of Van Schaftingen et al. (Eur J Biochem. 1982; 129(1):191-195). The F26BP concentration was normalized to total cellular protein measured by the bicinchoninic acid assay (BCA, Thermo Scientific).

[5] = H460, indicated concentrations of MPN-2, 48 hours

Molecule: COc1cccc2c(NCCCCCO[N+](=O)[O-])ccnc12 [5MPN, 5-[(8-methoxyquinolin-4-yl)amino]pentyl nitrate]
- ATP ([1]; H460, 10 μM 5MPN, 6-72 hours): reduced
- glycolysis ([2]; H460, 10 μM 5MPN, 6-72 hours): reduced
- tumor growth ([3]; 5MPN 120 mg/kg oral daily, ten days): suppressed the growth
- body weight ([3]; LLC-bearing mice, 120 mg/kg oral daily): without affecting body weight
- intracellular concentration of F2,6BP ([4]; H460, 10 μM 5MPN, 6-72 hours): reduced
- effect of overexpression of PFKFB4 on reduction in F2,6BP ([4]; H460 transfected with PFKFB4, 10 μM 5MPN, 24 hours): reversed

Molecule: 5-[(8-methoxy-2-methylquinolin-1-ium-4-yl)amino]pentyl nitrate [MPN-2]
- ATP production [1, 5]: decreased
- intracellular glycolysis [2, 5]: decreased
- tumor growth ([3]; intraperitoneal injection 10 mg/kg daily, eleven days): suppressed the growth
- F2,6BP production ([4]; H460, indicated concentrations of MPN-2): inhibited

Molecule: COc1cccc2c(NCCCCCNC(=O)C(F)(F)F)ccnc12 [Formula (VIII), 2,2,2-trifluoro-N-(5-((8-methoxyquinolin-4-yl)amino)pentyl)acetamide]
- established tumor growth ([3]; oral 40 mg/kg daily, 9 days): decreased established tumor growth

Reference: patent US10774046B2, “Inhibitors for the treatment of cancer and related methods” (UNIVERSITY OF LOUISVILLE RESEARCH FOUNDATION, INC., priority 2017, dated 2020)
